Experimental data reported in article PMC6753678, “Fueling Open Innovation for Malaria Transmission-Blocking Drugs: Hundreds of Molecules Targeting Early Parasite Mosquito Stages” (Frontiers in Microbiology, 2019).
Read-outs that look alike come from different tables or passages of the source.

How the values were obtained:
[1] = system: 3D7-strain P. falciparum asexual parasites; assay: P. falciparum asexual growth inhibition assay (Pf GIA); type: cell-based, Plasmodium falciparum; conditions: dose response confirmation; read-out: Pf asexual growth inhibition assays IC50
Method: The asexual activity of active compounds was tested in dose response with parasite lactate dehydrogenase (LDH) activity used as a readout of parasite viability as described in [Gamo et al. (2010)]. Briefly, 3D7-strain P. falciparum asexual parasites were diluted to 0.25% parasitemia, 2% hematocrit in culture medium composed of RPMI medium with 25 mM HEPES, 2% D-sucrose, 0.3% L-glutamine, 150 μM hypoxanthine plus 5% albumax. 25 μl of parasite inoculum was then dispensed into each well of a 384 well plate containing test compounds and positive (50 μM chloroquine) and negative (DMSO) controls. Plates were incubated for 72 h at 37°C in a 5% CO2, 5%O2, 90% N2 environment before being frozen at −70°C. Plates were then thawed and 70 μl of reaction mix (143 mM sodium L-lactate, 143 mM 3-acetyl pyridine adenine dinucleotide, […] Nitro Blue tetrazolium chloride, […] diaphorase (2.83 U/ml), 0.7% Tween 20, 100 mM Tris–HCl pH 8.0) was added to each well using a Multidrop Combi automated dispenser. Plates were shaken to mix and then absorbance at 650 nm was measured after 10 min incubation at room temperature. Percent inhibition of asexual growth was then calculated with respect to positive and negative controls. Data presented is the mean of three independent biological replicates.

HepG2 cells = assay: HepG2 cytotoxicity assay; conditions: for IC50: read-out: HepG2 cytotoxicity assay IC50, dose response confirmation; for Unified cytotox: unified HepG2 value across the three screens; for Pb ODA (this manuscript) HepG2 cytoxicity: HepG2 cytotoxicity listed with the Pb ODA data set (this manuscript)
Method: Briefly, HepG2 cells were seeded onto compound-treated 384 well plates at a density of 2,500 cells per well in Minimal Essential Medium (MEM) plus 10% fetal bovine serum and 1% non-essential amino acids solution (NEAA). Cells were incubated with test compounds or 50 μM doxorubicin (positive) and DSMO (negative) controls at 37°C for 48 h in a humidified 5% CO2 atmosphere. […] Cell viability was then measured in a fluorescent plate reader and percent inhibition calculated with respect to positive and negative controls.

[2] = system: P. berghei ookinete development; conditions: for % inhibition, Replicate A / % inhibition, Replicate B: primary screen at 1 μM
[3] = read-out: Pb ODA IC50, this manuscript
[4] = read-out: Pb Ookinete development assay IC50, dose response confirmation
[5] = read-out: Pb ODA (this manuscript) IC50, P. berghei ookinete development assay, this manuscript

SMILES	IC50 [1] [nM]	IC50 (HepG2 cells) [nM]	Unified cytotox (HepG2 cells) [µM]	Is compound selective in assay? Pb ODA active? ([2]; 1: YES, 0: NO)	% inhibition, Replicate A [2] [%]	% inhibition, Replicate B [2] [%]	IC50 [2, 3] [nM]	IC50 [2, 4] [nM]	Pb ODA (this manuscript) HepG2 cytoxicity (HepG2 cells) [µM]	Is compound selective in assay? Pb ODA active? [2]	IC50 [2, 5] [nM]
O=C(Nc1ccccc1)Nc1ccc(-n2ccc(C(F)(F)F)n2)cc1 [TCMDC-123480]	419	100000	100.00	1 (1: YES)	42.19	52.26	1900	1900			
O=c1c2c([nH]c3cc(Cl)ccc13)CCCC2 [TCMDC-123504]	824	100000			114.67	120.99		1240	100.00	1 (key: 1: YES; 0: NO)	1240
O=C(NCC1CCCCC1)c1cc(=O)c2ccccc2o1 [TCMDC-123621]	563	100000	100.00	1 (1: YES)	49.08	59.87		1040			
CC(=O)Nc1cccc(Nc2c3ccccc3nc3ccccc23)c1 [TCMDC-123741]	1470	12300	12.30	1 (1: YES)	54.87	64.71	690	686			
CSc1ccc(C=CC(=O)NC(=O)c2ccccc2O)cc1 [TCMDC-123758]	179	73300	73.28	1 (1: YES)	53.84	38.37	530	526			
Cc1cc(C(=O)OCC(=O)Nc2c(C)n(C)n(-c3ccccc3)c2=O)c(C)n1-c1ccc(F)cc1 [TCMDC-123794]	43	19500	19.50	1 (1: YES)	88.45	92.59		210			
Cc1nc(/N=C(\N)NC(=O)NC2CCCCC2)nc2ccccc12 [TCMDC-123808]	1.7	35500			57.73	102.93		1080	35.48	1 (key: 1: YES; 0: NO)	1080
Cc1cc(NC(c2ccc(Cl)cc2)c2ccc3cccnc3c2O)no1 (centres unmarked) [TCMDC-123828]	2550	1380	1.38	0 (0: NO)	41.30	61.82	3020	3020			
Cc1sc2ncnc(Sc3nc4ccccc4[nH]3)c2c1C [TCMDC-123835]	748	100000	100.00	1 (1: YES)	69.92	40.18	920	919			
CCOC(=O)c1c[nH]c2c(ccc3ccccc32)c1=O [TCMDC-123857]	443	100000	100.00	1 (1: YES)	88.11	83.13	560	562			
Cc1ccc(C2=NNC3(S2)C(=O)N(C)c2ccccc23)cc1 (centres unmarked) [TCMDC-123863]	3270	56900	56.89	1 (1: YES)	93.73	58.53	2440	2440			
CN(C)c1ccc(C=Cc2nc(=O)c3ccccc3o2)cc1 [TCMDC-123870]	41	100000			83.52	65.62		155	100.00	1 (key: 1: YES; 0: NO)	150
FC(F)(F)c1ccc(Nc2nnnc3ccccc23)cc1 [TCMDC-125603]	9				80.24	96.04		1260			
NS(=O)(=O)c1cncc(-c2ccc3nccc(-c4cn[nH]c4)c3n2)c1 [TCMDC-134293]	283				59.71	54.48		2160			
Cc1nc(C)c(-c2ccc(Oc3ccc(Cl)cc3Cl)cc2)c(O)c1Br [TCMDC-137533]	165				69.44	92.36		203			
CC(=O)c1c[nH]c2ccc(/C=C/C(=O)NC3CCC(CCN4CCc5ccc(C#N)cc5CC4)CC3)cc12.Cl (centres unmarked) [TCMDC-139781]					63.32	35.61					
O=c1cc(NCCCN(Cc2cc3c(Cl)cc(Cl)cc3[nH]2)Cc2cc3c(Cl)cc(Cl)cc3[nH]2)[nH]c2ccccc12 [TCMDC-139849]					64.98	20.87					

SMILES	IC50 [1] [nM]	IC50 (HepG2 cells) [nM]	Unified cytotox (HepG2 cells) [µM]	Is compound selective in assay? Pb ODA active? ([2]; 1: YES, 0: NO)	% inhibition, Replicate A [2] [%]	% inhibition, Replicate B [2] [%]	IC50 [2, 3] [nM]	IC50 [2, 4] [nM]	Pb ODA (this manuscript) HepG2 cytoxicity (HepG2 cells) [µM]	Is compound selective in assay? Pb ODA active? [2]	IC50 [2, 5] [nM]
O=C(NCCCN1CCN(c2cccc(Cl)c2)CC1)c1ccc(-c2nc3cc(Cl)c(Cl)cc3[nH]2)cc1 [TCMDC-140077]					61.66	14.32					
CN(C)CCCOc1ccccc1CN1CC[C@H](NC(=O)c2ccc(Cl)c(Cl)c2)C1.O=C(O)C(F)(F)F [TCMDC-140310]					-10.45	74.47					
COc1cc(NCCCNC(=O)c2cc3c(Cl)cc(Cl)cc3[nH]2)nc2ccccc12 [TCMDC-140360]					57.79	39.97					
Cc1cc(CNCCCCCCNCc2ccc(Cl)cc2)ccc1O [TCMDC-140414]					6.85	50.55					
COc1ccc2nccc(NC(=O)N3CCC(NCc4cc5ccccc5[nH]4)CC3)c2n1.O=C(O)C(=O)O [TCMDC-140671]					55.02	18.69					
COc1ccc2nccc([C@@H](O)CN3CCC(NCc4cc5cccc6c5n(c4=O)CCC6)CC3)c2c1.O=C(O)C(=O)O [TCMDC-140735]		16200	16.22	0 (0: NO)	13.85	52.08	3430	3430			
CC(C)(CN)c1nc(-c2ccc(Cl)c(O)c2)c(-c2ccnc(N)n2)[nH]1 [TCMDC-141019]	863				10.20	56.84		1720			
Cc1c(CNCCCNc2cc(=O)c3ccccc3[nH]2)sc(-c2ccco2)c1Br.Cl [TCMDC-141065]					4.54	52.38					
O=C(N[C@H]1CCN(CCc2ccc(O[C@H]3CCNC3)cc2)C1)c1ccc(Cl)c(Cl)c1.O=C(O)C(F)(F)F [TCMDC-141066]					57.79	22.51					
COc1ccc2nccc([C@@H](O)CN3CCC(NC(=O)Cc4cccc5c(Br)cccc45)CC3)c2c1 [TCMDC-141111]					36.89	51.52					
CCCCCCNC(=O)C1Cc2c([nH]c3ccc(Br)cc23)C2(CCN(CCc3ccccc3)CC2)N1 (centres unmarked) [TCMDC-141182]					15.53	59.10					
CCN(CC)CCN(Cc1ccc(-c2ccc(C(F)(F)F)cc2)cc1)C(=O)Cn1cc(CCCCc2cccc(F)c2F)c(=O)c2ccccc21.O=C(O)C(O)C(O)C(=O)O [TCMDC-141340]					60.00	20.87					
CC(=O)Nc1cccc(CN(Cc2ccc(-c3ccc(CNCc4cccnc4)cn3)cc2)C(=O)Cc2cccnc2)c1.O=C(O)C(F)(F)F [TCMDC-141604]					63.32	20.87					
C=Cc1cc(OC)c2c(c1)c(=O)oc1c2cc(OC)c2c(O)ccc([C@H]3O[C@H]([C@H](C)O)[C@H](O)[C@H]3O)c21 [TCMDC-141972]					89.48	109.41					
O=[N+]([O-])c1ccccc1C=NN=c1c2c([nH]c3ccccc13)CCCC2 [TCMDC-142202]					51.15	30.70					
CCN(CC)CCCC(C)Nc1c(-c2ccc(C)cc2)cnc2ccccc12 (centres unmarked) [TCMDC-142264]					53.92	8.32					
